Patent US10441681B2, “Materials and methods for nerve grafting” (University of Florida Research Foundation, Inc., priority 2001, dated 2019)

Assays:
rat sciatic nerve = experiment: Axonal regeneration into acellular interpositional nerve grafts (GAP-43 profiles); format: in vivo
Description: (§1) Adult (180-200 g) female SPRAGUE DAWLEY rats (HARLAN, Indianapolis, Ind.) were used as nerve donors and recipient hosts. Donor rats were anesthetized with halothane and decapitated. Sciatic nerves were exposed through a gluteal muscle-splitting incision and isolated free of underlying fascia. A 15-mm nerve segment was excised rostral to the bifurcation into common peroneal and tibial nerves. The segments were rinsed with cold sterile Ringer's solution, stabilized by pinning the ends to a thin plastic support, and transferred to a cryogenic vial. The vials were submerged in liquid nitrogen for 2 minutes and then transferred to a 37° C. water bath for 2 minutes. This freeze/thaw cycle was repeated, yielding acellular nerve grafts that were then stored in liquid nitrogen. On the day before grafting, the nerve grafts were warmed to room temperature and incubated in 100 μl phosphate buffered saline pH 7.4 (PBS) containing 2 units/ml chondroitinase ABC (SIGMA, St. Louis, Mo.) or in PBS (vehicle) only for 16 hours at 37° C. The grafts were rinsed twice with Ringer's and kept on ice prior to use. The chondroitinase ABC preparation was highly purified and stated by the manufacturer to be essentially free of protease activity.
Twelve rats received bilateral acellular nerve grafts, one chondroitinase-treated and one vehicle-treated graft. Host rats were deeply anesthetized using xylazine (15 mg/kg, i.m.) and ketamine (110 mg/kg, i.p.). The sciatic nerve was exposed and supported by a plastic insert placed between the nerve and underlying tissue. The region of nerve halfway between the sciatic notch and bifurcation was first coated with fibrin glue. Using serrated scissors, a 2.5-mm segment of host nerve was excised and replaced with a freshly trimmed 10-mm acellular nerve graft. The graft was coapted to the host nerve stumps by epineurial neurorrhaphy using one 9-0 ETHILON suture at each end. […] The muscle was closed with 4-0 sutures and the skin with wound clips. After recovery from the anesthetic, animals were returned to standard housing.
Nine rats were terminated at 8 days and four at 4 days after grafting. Animals were deeply anesthetized and decapitated. The graft and 3 mm of proximal and distal host nerve were removed, immersed in 4% paraformaldehyde in 0.1 M phosphate buffer (pH 7.4) overnight at 4° C. The specimens were equilibrated with PBS and immersed in 30% sucrose/phosphate buffer for 2 days at 4° C. […]
The main grafts were sectioned serially on the transverse plane in recorded measure to assess the extent of axonal growth by microscopy. […] GAP-43-positive axon profiles were scored using IMAGE-PRO PLUS software (MEDIA CYBERNETICS, Silver Springs, Md.). […]

CSPG = CSPG neoepitope (Ab1918) immunolabeling of acellular rat sciatic nerve segments treated en bloc; conditions: acellular rat sciatic nerve segments bathed en bloc in chondroitinase ABC solution for 16 hours
Description: as §1
Axonal regeneration was assessed by GAP-43 immunofluorescence and digital image analysis. […]

Question: With chondroitinase ABC as the substance, how does the “axonal penetration vs vehicle-treated grafts” value (rat sciatic nerve; 4-day grafts, 0.3 mm from the host-graft interface, 3 animals) read?
Answer: Its value is “five-fold greater”.

Question: And the “average number of axons (GAP-43-immunopositive profiles) entering grafts vs control grafts” value (rat sciatic nerve; 8-day acellular syngrafts, en bloc treated, n=9)?
Answer: The value was “more than three-fold greater”.

Question: And the “number of axons at the distal ends of grafts vs control” value (rat sciatic nerve; 8-day grafts)?
Answer: Its value is “a similar number of axons”.

Question: What about the “propensity of axons to grow within basal laminae” value (rat sciatic nerve; 8-day grafts, GAP-43/laminin double label) of the same substance?
Answer: The value was “unaltered”.

Question: What about the “CSPG degradation (Ab1918 neoepitope immunostaining)” value (CSPG) of the same substance?
Answer: The value was “thoroughly degraded CSPG side-chains”.
